Data published in patent US4940705A, “N-substituted derivatives of 1-desoxynojirimycin and 1-desoxymannonojirimycin and pharmaceutical use” (Bayer Aktiengesellschaft, priority 1987, dated 1990).
Values after ≈ are worked out from the molar mass of the structure shown.

Tests used:
Cytotoxicity (MCC) = format: cell-based; conditions: sheep, sheep fibroblast cells; MCC denotes cytotoxicity; Table 1
Description: (§1) The Visna virus test was carried out by the method of O. Narayan et al., Journal of Infectious Diseases 135, 5, 1977, 800-806. For this, the compounds according to the invention were diluted to non-cytotoxic concentrations in culture medium in 96-well microtiter plates. Subsequently, sheep fibroblast cells (5×10^4 cells per well) in production medium were added to each well. Each well then contained 50 μl of a Visna virus solution having a titre of about 2.5×10^4TCID50 (TCID=tissue culture infectious dose). This virus dose corresponds to an MOI (multiplicity of infection) of about 0.05.
(§2) Herein, MCC denotes cytotoxicity and MIC denotes the minimum concentration at which an inhibition of virus multiplication was still observed.

Visna virus = Visna virus test: inhibition of virus-induced cytopathic effect / virus multiplication in infected cell cultures; format: cell-based; conditions: Visna-maedi virus, 168 h, sheep fibroblast cells, 7 days at 37° C., Table 1, read-out: 2 MIC (minimum concentration at which an inhibition of virus multiplication was still observed)
Description: In cell cultures which are infected with Visna virus, pronounced virus-induced, cytopathic effects appear 5 to 10 days after infection. By treatment of the infected cell cultures with the compounds according to the invention, the appearance of these cytopathic effects could be prevented.
as §1
The infected and treated cells and the controlled cells were incubated for 7 days at 37° C. and 5% CO2.
On appearance of the virus-induced cytopathogenic effect in the untreated virus control, the cultures were fixed using formalin and subsequently stained with a Giemsa solution.
as §2

| SMILES | MCC (Cytotoxicity (MCC)) [µg/mL] | MIC (Visna virus) [µg/mL] |
| --- | --- | --- |
| O=C(CCN1C[C@H](O)[C@@H](O)[C@H](O)[C@H]1CO)Nc1ccc(OCc2ccccc2)cc1 [Example 4, N-(4-Benzyloxyphenyl)-3-(1,5-didesoxy-1,5-imino-D-glucit-N-yl)propionamide] | > 1000 | 125 (≈ 300 µM) |
| CC(C)(C)c1ccc(NC(=O)CCN2C[C@H](O)[C@@H](O)[C@H](O)[C@H]2CO)cc1 [Example 7, N-(4-Tert.-butylphenyl)-3-(1,5-didesoxy-1,5-imino-D-glucit-N-yl)propionamid] | > 1000 | 500 (≈ 1360 µM) |
| C=CCOc1ccc(NC(=O)CCN2C[C@H](O)[C@@H](O)[C@H](O)[C@H]2CO)cc1 [Example 10, N-(4-Allyloxyphenyl)-3-(1,5-didesoxy-1,5-imino-D-glucit-N-yl)propionamide] | > 1000 | 30 (≈ 81.9 µM) |
| O=C(CCN1C[C@H](O)[C@@H](O)[C@H](O)[C@H]1CO)Nc1ccc(C(F)(F)F)cc1 [Example 11, N-(4-Trifluoromethylphenyl)-3-(1,5-didesoxy-1,5-imino-D-glucit-N-yl)propionamide] | > 1000 | 500 (≈ 1320 µM) |
| O=C(CCN1C[C@H](O)[C@@H](O)[C@H](O)[C@H]1CO)Nc1ccc(OC(F)(F)C(F)Cl)cc1 (stereo partly drawn) [Example 12, N-[4-(2-Chloro-1,1,2-trifluoroethoxy)phenyl]-3-(1,5-didesoxy-1,5-imino-D-glucit-N-yl)propionamide] | 1000 | 250 (≈ 565 µM) |
| CC(C)c1ccccc1NC(=O)CCN1C[C@H](O)[C@@H](O)[C@H](O)[C@H]1CO [Example 14, N-(2-Isopropylphenyl)-3-(1,5-didesoxy-1,5-imino-D-glucit-N-yl)propionamide] | > 1000 | 125 (≈ 355 µM) |
| O=C(CCN1C[C@H](O)[C@@H](O)[C@H](O)[C@H]1CO)Nc1ccccc1F [Example 16, N-(2-Fluorophenyl)-3-(1,5-didesoxy-1,5-imino-D-glucit-N-yl)propionamide] | > 1000 | 250 (≈ 761 µM) |
| O=C(CCN1C[C@H](O)[C@@H](O)[C@H](O)[C@H]1CO)N1CCc2ccccc21 [Example 17, 1-[3-(1,5-Didesoxy-1,5-imino-D-glucit-N-yl)propionyl]-2,3-dihydroindole] | 1000 | 125 (≈ 372 µM) |
| O=C(CCN1C[C@H](O)[C@@H](O)[C@H](O)[C@H]1CO)Nc1ccc(F)cc1F [Example 18, N-(2,4-Difluorophenyl)-3-(1,5-didesoxy-1,5-imino-D-glucit-N-yl)propionamide] | > 1000 | 500 (≈ 1440 µM) |
| O=C(CCN1C[C@H](O)[C@@H](O)[C@H](O)[C@H]1CO)Nc1ccc(F)c(F)c1 [Example 19, N-(3,4-Difluorophenyl)-3-(1,5-didesoxy-1,5-imino-D-glucit-N-yl)propionamide] | > 1000 | 125 (≈ 361 µM) |
| COc1cc(NC(=O)CCN2C[C@H](O)[C@@H](O)[C@H](O)[C@H]2CO)cc(OC)c1OC [Example 23, N-(3,4,5-Trimethoxyphenyl)-3-(1,5-didesoxy-1,5-imino-D-glucit-N-yl)propionamide] | 150 | 75 (≈ 187 µM) |
| COc1ccc(NC(=O)CCN2C[C@H](O)[C@@H](O)[C@H](O)[C@H]2CO)cc1OC [Example 24, N-(3,4-Dimethoxyphenyl)-3-(1,5-didesoxy-1,5-imino-D-glucit-N-yl)propionamide] | > 1000 | 125 (≈ 337 µM) |
| COc1cc(NC(=O)CCN2C[C@H](O)[C@@H](O)[C@H](O)[C@H]2CO)cc(OC)c1 [Example 25, N-(3,5-Dimethoxyphenyl)-3-(1,5-didesoxy-1,5-imino-D-glucit-N-yl)propionamide] | > 1000 | 250 (≈ 675 µM) |
| N#Cc1cccc(NC(=O)CCN2C[C@H](O)[C@@H](O)[C@H](O)[C@H]2CO)c1 [Example 27, N-(3-Cyanophenyl)-3-(1,5-didesoxy-1,5-imino-D-glucit-N-yl)propionamide] | > 1000 | 250 (≈ 745 µM) |
| O=C(CCN1C[C@H](O)[C@@H](O)[C@H](O)[C@H]1CO)Nc1ccc(C2CCCCC2)cc1 [Example 28, N-(4-Cyclohexylphenyl)-3-(1,5-didesoxy-1,5-imino-D-glucit-N-yl)propionamide] | > 1000 | 500 (≈ 1270 µM) |
| O=C(CCN1C[C@H](O)[C@@H](O)[C@H](O)[C@H]1CO)Nc1ccc2c(c1)OCCO2 [Example 29, N-(3,4-Ethylenedioxyphenyl)-3-(1,5-didesoxy-1,5-imino-D-glucit-N-yl)propionamide] | > 1000 | 125 (≈ 339 µM) |
| O=C(CCN1C[C@H](O)[C@@H](O)[C@H](O)[C@H]1CO)Nc1ccc2c(c1)OCO2 [Example 31, N-(3,4-Methylenedioxyphenyl)-3-(1,5-didesoxy-1,5-imino-D-glucit-N-yl)propionamide] | > 1000 | 125 (≈ 353 µM) |
| CSc1ccccc1NC(=O)CCN1C[C@H](O)[C@@H](O)[C@H](O)[C@H]1CO [Example 32, N-(2-Methylthiophenyl)-3-(1,5-didesoxy-1,5-imino-D-glucit-N-yl)propionamide] | > 1000 | 250 (≈ 701 µM) |
| O=C(CCN1C[C@H](O)[C@@H](O)[C@H](O)[C@H]1CO)Nc1ccccc1 [Example 34, N-Phenyl-3-(1,5-didesoxy-1,5-imino-D-glucit-N-yl)propionamide] | > 1000 | 15 (≈ 48.3 µM) |
| CCOc1ccc(NC(=O)CCN2C[C@H](O)[C@@H](O)[C@H](O)[C@H]2CO)cc1 [Example 35, N-(4-Ethoxyphenyl)-3-(1,5-didesoxy-1,5-imino-D-glucit-N-yl)propionamide] | 250 | 15 (≈ 42.3 µM) |
| O=C(CCN1C[C@H](O)[C@@H](O)[C@H](O)[C@H]1CO)NCc1ccccn1 [Example 38, N-(2-Pyridylmethyl)-3-(1,5-didesoxy-1,5-imino-D-glucit-N-yl)propionamide] | 1000 | 250 (≈ 768 µM) |
| O=C(CCN1C[C@H](O)[C@@H](O)[C@H](O)[C@H]1CO)Nc1ccc(OCCO)cc1 [Example 40, N-[4-(2-Hydroxyethoxy)phenyl]-3-(1,5-didesoxy-1,5-imino-D-glucit-N-yl)propionamide] | > 1000 | 15 (≈ 40.5 µM) |
| O=C(CCN1C[C@H](O)[C@@H](O)[C@H](O)[C@H]1CO)N1CCN(c2ccc(F)cc2)CC1 [Example 41, 3-(1,5-Didesoxy-1,5-imino-D-glucit-N-yl)propionyl-1-(4-p-fluorophenyl)piperazine] | 1000 | 125 (≈ 315 µM) |
| COC(=O)c1ccc(NC(=O)CCN2C[C@@H](O)[C@@H](O)[C@H](O)[C@H]2CO)cc1 [Example 43, N-(4-Methoxycarbonylphenyl)-3-(1,5-didesoxy-1,5-imino-D-mannit-N-yl)propionamide] | > 1000 | 500 (≈ 1360 µM) |
| CCN(CC)CCOc1ccc(NC(=O)CCN2C[C@@H](O)[C@@H](O)[C@H](O)[C@H]2CO)cc1 [Example 50, N-[4-(2-N,N-Diethylaminoethoxy)phenyl]-3-(1,5-didesoxy-1,5-imino-D-mannit-N-yl)propionamide] | 1000 | 250 (≈ 588 µM) |
| C=CCOc1ccc(NC(=O)CCN2C[C@@H](O)[C@@H](O)[C@H](O)[C@H]2CO)cc1 [Example 51, N-(4-Allyloxyphenyl)-3-(1,5-didesoxy-1,5-imino-D-mannit-N-yl)propionamide] | 1000 | 250 (≈ 682 µM) |
